Tests used:
[1] = system: antibodies in sera from SARS patients (sera 1a, 1b, 2, 6, 37, 62, London, SARS-yellow, SARS-green); assay type: binding, human; design: Binding of serum 6 to linear peptides of protein X1 of SARS-CoV Urbani / Binding of serum 37 to linear peptides of protein X1 of SARS-CoV Urbani / Binding of serum 6 to looped/cyclic peptide (PEPSCAN-ELISA) / Binding of serum 37 to looped/cyclic peptide (PEPSCAN-ELISA) / Binding of serum 37 to looped/cyclic peptides of protein X1 of SARS-CoV Urbani / Binding of serum 6 to linear peptides of protein X2 / Binding of serum 37 to linear peptides of protein X2 / Binding of serum 37 to looped/cyclic peptides of protein X2 of SARS-CoV Urbani / Binding of serum 6 to linear peptides of protein M of SARS-CoV Urbani / Binding of serum 37 to linear peptides of protein M of SARS-CoV Urbani / Binding of serum 6 to looped/cyclic peptides of protein M of SARS-CoV Urbani / Binding of serum 37 to looped/cyclic peptides of protein M of SARS-CoV Urbani / Binding of serum 6 to linear peptides of protein X3 of SARS-CoV Urbani / Binding of serum 37 to linear peptides of protein X3 of SARS-CoV Urbani / Binding of serum 37 to looped/cyclic peptides of protein X3 of SARS-CoV Urbani / Binding of serum 6 to linear peptides of protein X4 of SARS-CoV Urbani / Binding of serum 37 to linear peptides of protein X4 of SARS-CoV Urbani / Binding of serum 37 to looped/cyclic peptides of protein X4 of SARS-CoV Urbani / Binding of serum 6 to linear peptides of protein X5 of SARS-CoV Urbani / Binding of serum 37 to linear peptides of protein X5 of SARS-CoV Urbani / Binding of serum 37 to looped/cyclic peptides of protein X5 of SARS-CoV Urbani / Binding of serum 6 to linear peptides of protein N of SARS-CoV Urbani / Binding of serum 37 to linear peptides of protein N of SARS-CoV Urbani / Binding of serum 6 to linear peptide (PEPSCAN-ELISA) / Binding of serum 1a to looped/cyclic peptides of protein N of SARS-CoV Urbani / Binding of serum 1b to looped/cyclic peptides of protein N of SARS-CoV Urbani / Binding of serum 2 to looped/cyclic peptides of protein N of SARS-CoV Urbani / Binding of serum 6 to looped/cyclic peptides of protein N of SARS-CoV Urbani / Binding of serum 37 to looped/cyclic peptides of protein N of SARS-CoV Urbani / Binding of serum 62 to looped/cyclic peptides of protein N of SARS-CoV Urbani / Binding of serum London to looped/cyclic peptides of protein N of SARS-CoV Urbani / Binding of serum SARS-green to looped/cyclic peptides of protein N of SARS-CoV Urbani: unit not given here
[2] = system: control sera (pooled serum of ten healthy LUMC hospital workers; commercial negative donor pooled serum from the Dutch bloodbank); assay type: binding, human; design: Binding of Control serum LUMC to linear peptides / Binding of Control serum Blood-bank to linear peptides / Binding of Control serum LUMC to looped peptides / Binding of Control Serum Blood-Bank to Looped peptides / Binding of Control serum LUMC to linear peptides of the protein M of SARS-CoV Urbani / Binding of Control serum Blood-bank to linear peptides of the protein M of SARS-CoV Urbani / Binding of Control serum LUMC to looped peptides of the protein M of SARS-CoV Urbani / Binding of Control Serum Blood-Bank to Looped peptides of the protein M of SARS-CoV Urbani: unit not given here
[3] = system: rabbit serum obtained by immunizing a rabbit with the SARS-CoV strain Frankfurt 1; assay type: binding; design: Binding of a rabbit serum to linear peptides / Binding of a rabbit serum to looped peptides / Rabbit serum linear peptides / Rabbit serum looped peptides / Binding of a rabbit serum to linear peptides of protein N of SARS-CoV Urbani (Rabbit serum linear peptides) / Binding of a rabbit serum to looped/cyclic peptides of protein N of SARS-CoV Urbani (Rabbit serum looped peptides): unit not given here

LIQQWIQFMMSRRRL
Binding of serum 1a to linear peptides of protein X2 [1]: 0.7 | Binding of serum 1a to looped/cyclic peptides of protein X2 of SARS-CoV Urbani [1]: 0.5 | Binding of serum 1b to linear peptides of protein X2 [1]: 0.4 | Binding of serum 1b to looped/cyclic peptides of protein X2 of SARS-CoV Urbani [1]: 0.5 | Binding of serum 2 to linear peptides of protein X2 [1]: 0.4 | Binding of serum 2 to looped/cyclic peptides of protein X2 of SARS-CoV Urbani [1]: 0.8 | Binding of serum 6 to linear peptides of protein X2 [1]: 0.7 | Binding of serum 6 to looped/cyclic peptides of protein X2 of SARS-CoV Urbani [1]: 0.5 | Binding of serum 37 to linear peptides of protein X2 [1]: 0.6 | Binding of serum 37 to looped/cyclic peptides of protein X2 of SARS-CoV Urbani [1]: 0.5 | Binding of serum 62 to linear peptides of protein X2 [1]: 0.5 | Binding of serum 62 to looped/cyclic peptides of protein X2 of SARS-CoV Urbani [1]: 0.8 | Binding of serum London to linear peptides of protein X2 [1]: 0.5 | Binding of serum London to looped/cyclic peptides of protein X2 of SARS-CoV Urbani [1]: 0.9 | Binding of serum SARS-green to linear peptides of protein X2 [1]: 0.4 | Binding of serum SARS-green to looped/cyclic peptides of protein X2 of SARS-CoV Urbani [1]: 0.3 | Binding of serum SARS-yellow to linear peptides of protein X2 [1]: 0.8 | Binding of serum SARS-yellow to looped/cyclic peptides of protein X2 of SARS-CoV Urbani [1]: 0.5 | Binding of Control Serum Blood-Bank to Looped peptides [2]: 0.4 | Binding of Control serum Blood-bank to linear peptides [2]: 0.7 | Binding of Control serum LUMC to linear peptides [2]: 0.5 | Binding of Control serum LUMC to looped peptides [2]: 0.6 | Binding of a rabbit serum to linear peptides [3]: 0.3 | Binding of a rabbit serum to looped peptides [3]: 1.2

LIVAALVFLILCFTI
Binding of serum 1a to linear peptides of protein X4 of SARS-CoV Urbani [1]: 0.7 | Binding of serum 1a to looped/cyclic peptides of protein X4 of SARS-CoV Urbani [1]: 0.6 | Binding of serum 1b to linear peptides of protein X4 of SARS-CoV Urbani [1]: 0.5 | Binding of serum 1b to looped/cyclic peptides of protein X4 of SARS-CoV Urbani [1]: 0.3 | Binding of serum 2 to linear peptides of protein X4 of SARS-CoV Urbani [1]: 0.5 | Binding of serum 2 to looped/cyclic peptides of protein X4 of SARS-CoV Urbani [1]: 0.5 | Binding of serum 6 to linear peptides of protein X4 of SARS-CoV Urbani [1]: 0.4 | Binding of serum 6 to looped/cyclic peptides of protein X4 of SARS-CoV Urbani [1]: 0.3 | Binding of serum 37 to linear peptides of protein X4 of SARS-CoV Urbani [1]: 0.6 | Binding of serum 37 to looped/cyclic peptides of protein X4 of SARS-CoV Urbani [1]: 0.6 | Binding of serum 62 to linear peptides of protein X4 of SARS-CoV Urbani [1]: 0.6 | Binding of serum 62 to looped/cyclic peptides of protein X4 of SARS-CoV Urbani [1]: 0.6 | Binding of serum London to linear peptides of protein X4 of SARS-CoV Urbani [1]: 0.6 | Binding of serum London to looped/cyclic peptides of protein X4 of SARS-CoV Urbani [1]: 0.2 | Binding of serum SARS-green to linear peptides of protein X4 of SARS-CoV Urbani [1]: 0.5 | Binding of serum SARS-green to looped/cyclic peptides of protein X4 of SARS-CoV Urbani [1]: 0.4 | Binding of serum SARS-yellow to linear peptides of protein X4 of SARS-CoV Urbani [1]: 0.4 | Binding of serum SARS-yellow to looped/cyclic peptides of protein X4 of SARS-CoV Urbani [1]: 0.5 | Binding of Control Serum Blood-Bank to Looped peptides [2]: 0.5 | Binding of Control serum Blood-bank to linear peptides [2]: 0.6 | Binding of Control serum LUMC to linear peptides [2]: 0.4 | Binding of Control serum LUMC to looped peptides [2]: 0.5 | Rabbit serum linear peptides [3]: 0.5 | Rabbit serum looped peptides [3]: 0.4

LKMLHSSSLTSLLKT
Binding of serum 1a to linear peptides of protein X2 [1]: 0.6 | Binding of serum 1a to looped/cyclic peptides of protein X2 of SARS-CoV Urbani [1]: 0.5 | Binding of serum 1b to linear peptides of protein X2 [1]: 0.5 | Binding of serum 1b to looped/cyclic peptides of protein X2 of SARS-CoV Urbani [1]: 0.5 | Binding of serum 2 to linear peptides of protein X2 [1]: 0.6 | Binding of serum 2 to looped/cyclic peptides of protein X2 of SARS-CoV Urbani [1]: 0.3 | Binding of serum 6 to linear peptides of protein X2 [1]: 0.4 | Binding of serum 6 to looped/cyclic peptides of protein X2 of SARS-CoV Urbani [1]: 0.3 | Binding of serum 37 to linear peptides of protein X2 [1]: 0.6 | Binding of serum 37 to looped/cyclic peptides of protein X2 of SARS-CoV Urbani [1]: 0.4 | Binding of serum 62 to linear peptides of protein X2 [1]: 0.6 | Binding of serum 62 to looped/cyclic peptides of protein X2 of SARS-CoV Urbani [1]: 0.6 | Binding of serum London to linear peptides of protein X2 [1]: 0.5 | Binding of serum London to looped/cyclic peptides of protein X2 of SARS-CoV Urbani [1]: 0.2 | Binding of serum SARS-green to linear peptides of protein X2 [1]: 0.5 | Binding of serum SARS-green to looped/cyclic peptides of protein X2 of SARS-CoV Urbani [1]: 0.3 | Binding of serum SARS-yellow to linear peptides of protein X2 [1]: 0.6 | Binding of serum SARS-yellow to looped/cyclic peptides of protein X2 of SARS-CoV Urbani [1]: 0.2 | Binding of Control Serum Blood-Bank to Looped peptides [2]: 0.6 | Binding of Control serum Blood-bank to linear peptides [2]: 0.7 | Binding of Control serum LUMC to linear peptides [2]: 0.4 | Binding of Control serum LUMC to looped peptides [2]: 0.5 | Binding of a rabbit serum to linear peptides [3]: 0.2 | Binding of a rabbit serum to looped peptides [3]: 0.4

LLACLCKHKKVSTNL
Binding of serum 1a to looped/cyclic peptides of protein X2 of SARS-CoV Urbani [1]: 0.4 | Binding of serum 1b to looped/cyclic peptides of protein X2 of SARS-CoV Urbani [1]: 0.4 | Binding of serum 2 to looped/cyclic peptides of protein X2 of SARS-CoV Urbani [1]: 0.4 | Binding of serum 6 to looped/cyclic peptides of protein X2 of SARS-CoV Urbani [1]: 0.4 | Binding of serum 37 to looped/cyclic peptides of protein X2 of SARS-CoV Urbani [1]: 0.5 | Binding of serum 62 to looped/cyclic peptides of protein X2 of SARS-CoV Urbani [1]: 0.7 | Binding of serum London to looped/cyclic peptides of protein X2 of SARS-CoV Urbani [1]: 0.2 | Binding of serum SARS-green to looped/cyclic peptides of protein X2 of SARS-CoV Urbani [1]: 0.3 | Binding of serum SARS-yellow to looped/cyclic peptides of protein X2 of SARS-CoV Urbani [1]: 0.4 | Recognition of the peptide by sera of SARS-CoV infected individuals, and form (linear, looped/cyclic) in which it is recognized [1]: recognized in linear form | Binding of Control Serum Blood-Bank to Looped peptides [2]: 0.5 | Binding of Control serum Blood-bank to linear peptides [2]: 0.8 | Binding of Control serum LUMC to linear peptides [2]: 0.8 | Binding of Control serum LUMC to looped peptides [2]: 0.7 | Binding of a rabbit serum to linear peptides [3]: 0.4 | Binding of a rabbit serum to looped peptides [3]: 0.4
